Tested on: moderate-to-severe chronic spontaneous urticaria (CSU)
Assay: Phase 2 CSU study: urticaria activity score over 7 days (UAS7)
Assay type: in vivo, human
Parameters: key to UAS7 Median / UAS7 Change from baseline Median / UAS7 change from baseline, Q1 / UAS7 change from baseline, Q3 / UAS7 change from baseline, Max / UAS7 Change from baseline LS Mean (SE): UAS7 points; daily UAS score ranges 0–6 points/day, over 7 days
Excerpt: The study comprises a 12 week, randomized, double-blind, placebo-controlled, multi-center, dose-ranging efficacy and safety phase, followed by a 40 week open label extension (OLE) phase (see FIG. 1). The study consists of three phases and an optional OLE phase. […] Clinically, CSU is characterized by the spontaneous and recurrent appearance of pruritic hives. The proposed primary endpoints were the UAS7 at Week 12 in EU and EU reference countries and the ISS7 in the US. Regardless of where a participant was from, all assessments were the same. The UAS7 score is a composite score containing both the HSS7 and the ISS7. This allowed a global assessment of the two key components of urticaria: hives and itch. […] The UAS is a validated PRO measure. […] The daily UAS scores range from 0 to 6 point/day. […] Patients were to complete the UAS using the e-diary. […] The following secondary endpoints were to be analyzed using the same approach as for the primary endpoint: • Change from baseline in UAS7 at Week 4 • Change from baseline in UAS7 at Week 12 (for US and US reference countries) • Change from baseline in ISS7 at Week 12 (except US and US reference countries) • Change from baseline in HSS7 at Week 12 The following responder secondary endpoints were to be analyzed using the Cochran-Mantel-Haenszel test adjusted by region: • Proportion of participants with UAS7<6 at Week 12 • Proportion of participants with UAS7=0 at Week 12 Participants who received selected prohibited medications and/or rescue medications were to be considered as non-responders for time points after the medication usage. For other participants, all available data including those collected during the off-treatment period were to be used to determine the responder/non-responder status. Missing data were to be considered as non-responders.

[1] = Week 9, 400 mg QPM, Prior Omalizumab Use
[2] = Week 9, 400 mg QPM, omalizumab-naive participants
[3] = Week 9, 400 mg TID, ITT population
[4] = Week 9, 400 mg TID, Omalizumab-Naïve
[5] = Week 9, 400 mg TID, Prior Omalizumab Use
[6] = Week 9, 400 mg TID, omalizumab-naive participants
[7] = Week 10, 400 mg BID, ITT population
[8] = Week 10, 400 mg BID, Omalizumab-Naïve
[9] = Week 10, 400 mg BID, Prior Omalizumab Use
[10] = Week 10, 400 mg BID, omalizumab-naive participants
[11] = Week 10, 400 mg QPM, ITT population
[12] = Week 10, 400 mg QPM, Omalizumab-Naïve
[13] = Week 10, 400 mg QPM, Prior Omalizumab Use
[14] = Week 10, 400 mg QPM, omalizumab-naive participants

CC(C)(C=C(C#N)C(=O)N1CCC[C@@H](n2nc(-c3ccc(Oc4ccccc4)cc3F)c3c(N)ncnc32)C1)N1CCN(C2COC2)CC1 [rilzabrutinib, (R)-2-[3-[4-amino-3-(2-fluoro-4-phenoxy-phenyl)pyrazolo[3,4-d]pyrimidin-1-yl]piperidine-1-carbonyl]-4-methyl-4-[4-(oxetan-3-yl)piperazin-1-yl]pent-2-enenitrile]
UAS7 Change from baseline Mean (SD) [1]: −23.00 (NC)
UAS7 Change from baseline Median [1]: −23.00
UAS7 Mean (SD) [1]: 18.00 (NC)
UAS7 Median [1]: 18.00
UAS7 Percent change from baseline Mean (SD) [1]: −56.10 (NC) %
UAS7 Percent change from baseline Median [1]: −56.10%
Non-responder, UAS7 reduction from baseline of 10 points or more [2]: 20 (54.1) n (%)
OR for rilzabrutinib vs. placebo, UAS7 reduction of 10 points or more [2]: 1.522
RRD (%) for rilzabrutinib vs. placebo, UAS7 reduction of 10 points or more [2]: 9.7 %
Responder, UAS7 reduction from baseline of 10 points or more [2]: 17 (45.9) n (%)
Non-responder, UAS7 reduction from baseline of 10 points or more [3]: 13 (31.7) n (%)
OR for rilzabrutinib vs. placebo, UAS7 reduction of 10 points or more [3]: 3.243
RRD (%) for rilzabrutinib vs. placebo, UAS7 reduction of 10 points or more [3]: 26.2 %
Responder, UAS7 reduction from baseline of 10 points or more [3]: 28 (68.3) n (%)
UAS7 Change from baseline Mean (SD) [4]: −17.88 (11.04)
UAS7 Change from baseline Median [4]: −17.00
UAS7 Mean (SD) [4]: 12.57 (9.72)
UAS7 Percent change from baseline Mean (SD) [4]: −57.42 (32.58) %
UAS7 Percent change from baseline Median [4]: −60.00%
UAS7 Change from baseline Median [5]: −24.92
UAS7 Median [5]: 4.00
UAS7 Percent change from baseline Mean (SD) [5]: −77.44 (25.29) %
UAS7 Percent change from baseline Median [5]: −85.78%
Non-responder, UAS7 reduction from baseline of 10 points or more [6]: 12 (34.3) n (%)
OR for rilzabrutinib vs. placebo, UAS7 reduction of 10 points or more [6]: 3.460
RRD (%) for rilzabrutinib vs. placebo, UAS7 reduction of 10 points or more [6]: 29.2 %
Responder, UAS7 reduction from baseline of 10 points or more [6]: 23 (65.7) n (%)
Non-responder, UAS7 reduction from baseline of 10 points or more [7]: 20 (48.8) n (%)
RRD (%) for rilzabrutinib vs. placebo, UAS7 reduction of 10 points or more [7]: 2.8 %
Responder, UAS7 reduction from baseline of 10 points or more [7]: 21 (51.2) n (%)
UAS7 Change from baseline Mean (SD) [8]: −14.01 (11.59)
UAS7 Change from baseline Median [8]: −14.50
UAS7 Mean (SD) [8]: 15.22 (14.36)
UAS7 Median [8]: 13.50
UAS7 Percent change from baseline Mean (SD) [8]: −50.88 (41.19) %
UAS7 Percent change from baseline Median [8]: −51.79%
UAS7 Change from baseline Mean (SD) [9]: −19.40 (18.66)
UAS7 Change from baseline Median [9]: −23.00
UAS7 Mean (SD) [9]: 12.60 (14.98)
UAS7 Median [9]: 4.00
UAS7 Percent change from baseline Mean (SD) [9]: −55.61 (51.03) %
UAS7 Percent change from baseline Median [9]: −85.19%
Non-responder, UAS7 reduction from baseline of 10 points or more [10]: 17 (48.6) n (%)
OR for rilzabrutinib vs. placebo, UAS7 reduction of 10 points or more [10]: 1.312
RRD (%) for rilzabrutinib vs. placebo, UAS7 reduction of 10 points or more [10]: 7.2 %
Responder, UAS7 reduction from baseline of 10 points or more [10]: 18 (51.4) n (%)
Non-responder, UAS7 reduction from baseline of 10 points or more [11]: 19 (50.0) n (%)
OR for rilzabrutinib vs. placebo, UAS7 reduction of 10 points or more [11]: 1.159
RRD (%) for rilzabrutinib vs. placebo, UAS7 reduction of 10 points or more [11]: 3.5 %
Responder, UAS7 reduction from baseline of 10 points or more [11]: 19 (50.0) n (%)
UAS7 Change from baseline Mean (SD) [12]: −11.73 (10.20)
UAS7 Change from baseline Median [12]: −10.00
UAS7 Mean (SD) [12]: 20.27 (10.69)
UAS7 Median [12]: 17.00
UAS7 Percent change from baseline Mean (SD) [12]: −36.15 (29.79) %
UAS7 Percent change from baseline Median [12]: −36.70%
UAS7 Change from baseline Mean (SD) [13]: −25.00 (NC)
UAS7 Change from baseline Median [13]: −25.00
UAS7 Mean (SD) [13]: 16.00 (NC)
UAS7 Median [13]: 16.00
UAS7 Percent change from baseline Mean (SD) [13]: −60.98 (NC) %
UAS7 Percent change from baseline Median [13]: −60.98%
Non-responder, UAS7 reduction from baseline of 10 points or more [14]: 19 (51.4) n (%)
OR for rilzabrutinib vs. placebo, UAS7 reduction of 10 points or more [14]: 1.190
RRD (%) for rilzabrutinib vs. placebo, UAS7 reduction of 10 points or more [14]: 4.1 %
Responder, UAS7 reduction from baseline of 10 points or more [14]: 18 (48.6) n (%)

Reference: patent US20260256792A1, “TREATMENT OF CHRONIC SPONTANEOUS URTICARIA BY ADMINISTERING (R)-2-[3-[4-AMINO-3-(2-FLUORO-4-PHENOXY-PHENYL)PYRAZOLO[3,4-D]PYRIMIDIN-1-YL]PIPERIDINE-1-CARBONYL]-4-METHYL-4-[4-(OXETAN-3-YL)PIPERAZIN-1-YL]PENT-2-ENENITRILE” (priority 2023, published 2026)
